Blank lines part the entries; values can stand above or below the molecule they belong to.
What was measured:
Zebrafish embryos = assay: Zebrafish embryo staining: localization and tissue permeability; type: in vivo; conditions: confocal projections of head and tail, 80 μm of embryonic interior
From the text: Zebrafish embryos were stained with compound 3 and compound 4 in order to assess the localization and tissue permeability of each compound in vivo. This procedure had not previously been attempted in zebrafish embryos with an unconjugated fluorescein derivative. Therefore, the commercially available BODIPY TR methyl ester was used as a control stain since it has been successfully used for this purpose.[10] […] Yolk sacs and yolk extensions always appeared brighter than the embryos themselves (FIG. 3A-C). This is likely the result of compound accumulation within the lipidic yolk platelets that comprise almost the entire volume of the yolk.[11]
Structures containing little organic material, including scales and calcified otoliths, were not stained. Confocal sections of the dorsal midline (FIG. 3H, J, L) indicate that the notochord sheath and surrounding tissue are efficiently labeled, while the notochord vacuoles remain unstained.

[1] = carboxyl group replaced with methyl group; cited from earlier work
live human cells = conditions: compared with Tokyo Green; cited from earlier work

permeation of live tissue (Zebrafish embryos): permeate live tissue to similar extents
SMILES: COC(=O)COc1ccc(C2=[N+]3C(=Cc4ccc(-c5cccs5)n4[B-]3(F)F)C=C2)cc1 [BODIPY TR methyl ester]

SMILES: Cc1ccccc1-c1c2ccc(=O)cc-2oc2cc(O)ccc12 [Tokyo Green]
quantum yield relative to fluorescein [1]: no loss of quantum yield

SMILES: Cc1ccccc1-c1c2cc(F)c(=O)cc-2oc2cc(O)c(F)cc12 [Pennsylvania Green]
fluorescence in live human cells (live human cells): more fluorescent than Tokyo Green
